# According to patent US9255101B2 (BIOPROJECT, priority 2012, dated 2016):
# Where two headings read alike, the source gives them in different places.
# Experiments:
# human H4 receptor [1] = biological target: T1, human H4 receptor (Homo sapiens, UniProt Q9H3N8); test: biochemical
# human H4 receptor [2] = biological target: T1, human H4 receptor; test: biochemical; remark: listed apart in the source
# human H4 receptor [3] = biological target: T1, human H4 receptor
# human H4 receptor [4] = biological target: T1, human H4 receptor; remark: listed apart in the source
# 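For IC50 in this document: membranes from SH-SY5Y cells with stable human H4 receptor expression, incubated with GDP 10 µM, radioactivity retained on filters counted by liquid scintillation.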
# 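For Ki in this document: radioligand displacement of a [3H]-labelled ligand from membranes of CHO cells stably expressing human H4 receptor, bound radioactivity counted on filters by liquid scintillation.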
# T1 sequence (Q9H3N8 whole entry): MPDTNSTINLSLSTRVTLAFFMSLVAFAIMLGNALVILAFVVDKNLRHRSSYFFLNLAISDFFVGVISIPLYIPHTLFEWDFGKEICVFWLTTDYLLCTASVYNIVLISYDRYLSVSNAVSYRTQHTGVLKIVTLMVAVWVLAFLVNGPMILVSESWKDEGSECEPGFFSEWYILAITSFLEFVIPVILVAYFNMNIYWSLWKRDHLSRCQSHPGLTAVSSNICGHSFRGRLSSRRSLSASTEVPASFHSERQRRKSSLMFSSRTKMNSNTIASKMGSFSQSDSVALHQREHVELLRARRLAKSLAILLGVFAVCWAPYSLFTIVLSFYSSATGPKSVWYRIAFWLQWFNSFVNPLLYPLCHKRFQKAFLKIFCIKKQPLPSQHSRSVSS
Compound,Ki (human H4 receptor [1]),melting point,IC50 (human H4 receptor [2]),IC50 (human H4 receptor [3]),Ki (human H4 receptor [4])
"Cc1c(-c2ccccc2F)nc2n1CCc1ccccc1C2OC1CCN(C)CC1 (centres unmarked) [Example 142, 2-(2-fluorophenyl)-1-methyl-4-(1-methylpiperidin-4-yloxy)-9,10-dihydro-4H-3,10a-diaza-benzo[f]azulene]",< 0.3 µM,68 °C,< 0.03 µM,–,–
"4-(1-methylpiperidin-4-yloxy)-2-phenylethynyl-9,10-dihydro-4H-3,10a-diaza-benzo[f]azulene [Example 34]",–,–,–,< 0.3 µM,< 0.3 µM
"Cc1c(-c2ccc(C=CC(=O)OC(C)(C)C)cc2)nc2n1CCc1ccccc1C2OC1CCN(C)CC1 (centres unmarked) [Example 151, 3-{4-[1-methyl-4-(1-methylpiperidin-4-yloxy)-9,10-dihydro-4H-3,10a-diaza-benzo[f]azulen-2-yl]-phenyl}-acrylic acid tert-butyl ester]",< 0.03 µM,185 °C,< 0.03 µM,–,–
"COc1ccc(-c2nc3n(c2C)CCc2ccccc2C3OC2CCN(C)CC2)cc1 (centres unmarked) [Example 156, 2-(4-methoxyphenyl)-1-methyl-4-(1-methylpiperidin-4-yloxy)-9,10-dihydro-4H-3,10a-diaza-benzo[f]azulene]",< 0.03 µM,164 °C,< 0.03 µM,–,–
"Cc1c(-c2ccc(NS(=O)(=O)C3CC3)cc2)nc2n1CCc1ccccc1C2OC1CCN(C)CC1 (centres unmarked) [Example 187, 4-[1-methyl-4-(1-methylpiperidin-4-yloxy)-9,10-dihydro-4H-3,10a-diaza-benzo[f]azulen-2-yl]-phenyl-cyclopropanesulfonamide]",–,–,–,< 0.3 µM,< 0.3 µM
"CN1CCC(OC2c3ccccc3CCn3c2nc(-c2ccccc2)c3CO)CC1 (centres unmarked) [Example 257, [4-(1-methylpiperidin-4-yloxy)-2-phenyl-9,10-dihydro-4H-3,10a-diaza-benzo[f]azulen-1-yl]-methanol]",< 0.3 µM,120 °C,< 0.3 µM,–,–
"Cc1c(-c2cccc(F)c2)nc2n1CCc1ccccc1C2OC1CCN(C)CC1 (centres unmarked) [Example 143, 2-(3-fluorophenyl)-1-methyl-4-(1-methylpiperidin-4-yloxy)-9,10-dihydro-4H-3,10a-diaza-benzo[f]azulene]",< 0.03 µM,132 °C,< 0.03 µM,–,–
"Cc1ccccc1-c1nc2n(c1C)CCc1ccccc1C2OC1CCN(C)CC1 (centres unmarked) [Example 147, 1-methyl-4-(1-methylpiperidin-4-yloxy)-2-o-tolyl-9,10-dihydro-4H-3,10a-diaza-benzo[f]azulene]",< 0.03 µM,74 °C,< 0.03 µM,–,–
"COc1cccc(-c2nc3n(c2C)CCc2ccccc2C3OC2CCN(C)CC2)c1 (centres unmarked) [Example 150, 2-(3-methoxyphenyl)-1-methyl-4-(1-methypiperidin-4-yloxy)-9,10-dihydro-4H-3,10a-diaza-benzo[f]azulene]",< 0.03 µM,138 °C,< 0.03 µM,–,–
"CN1CCC(OC2c3ccccc3CCn3cc(-c4ccc(Br)cc4)nc32)CC1 (centres unmarked) [Example 81, 2-(4-bromophenyl)-4-(1-methylpiperidin-4-yloxy)-9,10-dihydro-4H-3,10a-diaza-benzo[f]azulene]",< 0.03 µM,142 °C,< 0.03 µM,–,–
"CN1CCC(OC2c3ccccc3CCn3c2nc(-c2ccc(Br)cc2)c3Cl)CC1 (centres unmarked) [Example 127, 2-(4-bromophenyl)-1-chloro-4-(1-methylpiperidin-4-yloxy)-9,10-dihydro-4H-3,10a-diaza-benzo[f]azulene]",< 0.03 µM,169 °C,< 0.03 µM,–,–
"Cc1ccc(-c2cn3c(n2)C(OC2CCN(C)CC2)c2ccccc2CC3)s1 (centres unmarked) [Example 96, 4-(1-methylpiperidin-4-yloxy)-2-(5-methylthiophen-2-yl)-9,10-dihydro-4H-3,10a-diaza-benzo[f]azulene]",–,–,–,< 0.3 µM,< 0.3 µM
"Cc1cccc(-c2nc3n(c2C)CCc2ccccc2C3OC2CCN(C)CC2)c1 (centres unmarked) [Example 144, 1-methyl-4-(1-methylpiperidin-4-yloxy)-2-m-tolyl-9,10-dihydro-4H-3,10a-diaza-benzo[f]azulene]",< 0.03 µM,66 °C,< 0.03 µM,–,–
"CN1CCC(OC2c3ccccc3CCn3cc(-c4ccccc4)nc32)CC1 (centres unmarked) [Example 4, 4-(1-methylpiperidin-4-yloxy)-2-phenyl-9,10-dihydro-4H-3,10a-diaza-benzo[f]azulene]",< 0.3 µM,113 °C,< 0.3 µM,–,–
"Cc1ccc(-c2nc3n(c2C)CCc2ccccc2C3OC2CCN(C)CC2)cc1 (centres unmarked) [Example 153, 1-methyl-4-(1-methylpiperidin-4-yloxy)-2-p-tolyl-9,10-dihydro-4H-3,10a-diaza-benzo[f]azulene]",< 0.03 µM,181 °C,< 0.03 µM,–,–
"Cc1c(-c2cccc(Cl)c2)nc2n1CCc1ccccc1C2OC1CCN(C)CC1 (centres unmarked) [Example 145, 2-(3-chlorophenyl)-1-methyl-4-(1-methylpiperidin-4-yloxy)-9,10-dihydro-4H-3,10a-diaza-benzo[f]azulene]",< 0.03 µM,72 °C,< 0.03 µM,–,–
"Cc1ccc(-c2nc3n(c2C)CCc2ccccc2C3OC2CCN(C)CC2)c(Cl)c1 (centres unmarked) [Example 157, 2-(2-chloro-4-methylphenyl)-1-methyl-4-(1-methylpiperidin-4-yloxy)-9,10-dihydro-4H-3,10a-diaza-benzo[f]azulene]",< 0.03 µM,133 °C,–,–,–
"CN1CCC(OC2c3ccccc3CCn3cc(C#Cc4cccnc4)nc32)CC1 (centres unmarked) [Example 63, 4-(1-methylpiperidin-4-yloxy)-2-pyridin-3-ylethynyl-9,10-dihydro-4H-3,10a-diaza-benzo[f]azulene]",–,–,–,–,< 1 µM
"C=CCCc1cccc2c1CCn1cc(-c3ccccc3)nc1C2OC1CCN(C)CC1.O=C(O)C(=O)O (centres unmarked) [Example 237, 8-but-3-enyl-4-(1-methylpiperidin-4-yloxy)-2-phenyl-9,10-dihydro-4H-3,10a-diaza-benzo[f]azulene, oxalate]",< 1 µM,107 °C,–,–,–
"CN1CCC(OC2c3ccccc3CCn3c(I)cnc32)CC1 (centres unmarked) [Example 3, 1-iodo-4-(1-methylpiperidin-4-yloxy)-9,10-dihydro-4H-3,10a-diaza-benzo[f]azulene]",< 0.3 µM,163 °C,–,–,–
"Cc1c(C(=O)c2ccccc2)nc2n1CCc1ccccc1C2OC1CCN(C)CC1.O=CO (centres unmarked) [Example 202, [1-methyl-4-(1-methylpiperidin-4-yloxy)-9,10-dihydro-4H-3,10a-diaza-benzo[f]azulen-2-yl]phenylmethanone, formic acid salt]",< 1 µM,71 °C,–,–,–
"CN1CCC(OC2c3ccccc3CCn3c2nc(-c2ccccc2)c3C=O)CC1 (centres unmarked) [Example 262, 4-(1-methylpiperidin-4-yloxy)-2-phenyl-9,10-dihydro-4H-3,10a-diaza-benzo[f]azulene-1-carbaldehyde]",< 0.3 µM,70 °C,–,–,–
"CN1CCC(OC2c3ccc(Br)cc3CCn3cc(-c4ccccc4)nc32)CC1 (centres unmarked) [Example 261, 7-bromo-4-(1-methylpiperidin-4-yloxy)-2-phenyl-9,10-dihydro-4H-3,10a-diaza-benzo[f]azulene]",< 0.3 µM,92 °C,–,–,–
"Cc1c(C(=O)N(C)c2ccccc2)nc2n1CCc1ccccc1C2OC1CCN(C)CC1 (centres unmarked) [Example 204, 1-methyl-4-(1-methylpiperidin-4-yloxy)-9,10-dihydro-4H-3,10a-diaza-benzo[f]azulene-2-carboxylic acid methylphenylamide]",< 1 µM,75 °C,–,–,–
"Cc1c(-c2ccc(N3CCOC3=O)cc2)nc2n1CCc1ccccc1C2OC1CCN(C)CC1 (centres unmarked) [Example 131, 3-{4-[1-methyl-4-(1-methylpiperidin-4-yloxy)-9,10-dihydro-4H-3,10a-diaza-benzo[f]azulen-2-yl]-phenyl}-oxazolidin-2-one]",< 0.3 µM,214 °C,–,–,–
"Cc1c(-c2ccccc2Cl)nc2n1CCc1ccccc1C2OC1CCN(C)CC1 (centres unmarked) [Example 146, 2-(2-chlorophenyl)-1-methyl-4-(1-methylpiperidin-4-yloxy)-9,10-dihydro-4H-3,10a-diaza-benzo[f]azulene]",< 0.03 µM,78 °C,< 0.03 µM,–,–
"Cc1ccccc1-c1cccc2c1CCn1cc(-c3ccccc3)nc1C2OC1CCN(C)CC1 (centres unmarked) [Example 239, 4-(1-methylpiperidin-4-yloxy)-2-phenyl-8-o-tolyl-9,10-dihydro-4H-3,10a-diaza-benzo[f]azulene]",< 1 µM,94 °C,–,–,–
"Cc1c(-c2ccc(C3=CCN(C(=O)OC(C)(C)C)CC3)cc2)nc2n1CCc1ccccc1C2OC1CCN(C)CC1 (centres unmarked) [Example 168, 4-{4-[1-methyl-4-(1-methyl-piperidin-4-yloxy)-9,10-dihydro-4H-3,10a-diaza-benzo[f]azulen-2-yl]-phenyl}-3,6-dihydro-2H-pyridine-1-carboxylic acid tert-butyl ester]",< 0.03 µM,171 °C,–,–,–
"CN1CCC(OC2c3ccccc3CCn3cc(-c4ccc(N)cc4)nc32)CC1 (centres unmarked) [Example 16, 4-[4-(1-methylpiperidin-4-yloxy)-9,10-dihydro-4H-3,10a-diaza-benzo[f]azulen-2-yl]-phenylamine]",< 1 µM,197 °C,–,–,–
